Experimental data: ChEMBL document CHEMBL5727202, “Aryl acylsulfonamides as BLT1 antagonists” (2019)
pEC50: −log10 of the molar value.

Molecular target: Leukotriene B4 receptor 1 (Homo sapiens, UniProt Q15722)
Assay: BLT-1 cAMP Assay: The ability of compounds to antagonize the human BLT1 receptor was determined using a kit to measure changes in intracellular cyclic AMP levels (cAMP dynamic assay kit, Cisbio Cat. No. 62AM4PEC). HEK293 cells recombinantly expressing human BLT1 receptor, previously frozen in Recovery Medium (Life Technologies, Cat. No. 12648-010) were thawed and diluted into assay medium (HBSS (Hyclone SH 30268.01), 20 mM HEPES (Gibco 15630-106), 800 μM IBMX (Sigma I5879), 0.1% DTPA BSA (Perkin Elmer CR84-100)). The cell suspension was centrifuged at 200×g for 10 min and then resuspended in fresh assay medium to a density of 2.5×10^5 cells/mL. A Labcyte Echo 550 acoustic dispenser was used to transfer 25 nL of test compound dissolved in DMSO into the wells of a dry 384-well plate (Greiner 784075). All subsequent liquid additions were performed using a BIORAPTR (FRD; Beckman Coulter). Next, 5 μL of cell suspension was added and incubated for 20 min. at 37° C. and 5% CO2 in a humidified plastic tray. To test for agonist activity […] of assay buffer containing forskolin (Sigma F-6886. 4 μM for BLT1) was added and incubated for 30 minutes at 37° C. and 5% CO2 in a humidified plastic tray. To test for antagonist activity 5 μL of assay buffer containing forskolin (Sigma F-6886. 4 μM for BLT1) and either LTB4 (Sigma Aldrich L0517; 2 nM BLT1) was added and incubated for 30 minutes at 37° C. and 5% CO2 in a humidified plastic tray.The levels of cAMP were detected using the CisBio kit following the manufacturer's instructions: cAMP-d2 vial was reconstituted with distilled water and then diluted accordingly with conjugate & lysis buffer. 5 μL of cAMP-d2 working solution was added to all of the wells of the assay plate. cAMP-Cryptate vial was reconstituted with distilled water and then diluted accordingly with conjugate & lysis buffer. 5 μL of cAMP-Cryptate working solution were added to the assay plate. […]
Format: cell-based

Sequence of Leukotriene B4 receptor 1 (Q15722 whole entry): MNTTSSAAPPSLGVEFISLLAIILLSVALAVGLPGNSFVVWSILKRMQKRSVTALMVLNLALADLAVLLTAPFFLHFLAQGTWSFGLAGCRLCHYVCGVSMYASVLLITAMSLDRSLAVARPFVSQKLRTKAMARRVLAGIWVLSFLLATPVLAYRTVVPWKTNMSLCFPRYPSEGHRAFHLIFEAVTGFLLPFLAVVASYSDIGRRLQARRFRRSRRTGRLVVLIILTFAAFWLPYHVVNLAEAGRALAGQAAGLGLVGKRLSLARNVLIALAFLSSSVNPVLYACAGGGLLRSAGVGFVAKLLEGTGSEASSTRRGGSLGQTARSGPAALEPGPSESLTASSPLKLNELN

SMILES	pEC50
CCn1nccc1C[C@@H]1COc2cc(-c3ccccc3C(=O)NS(=O)(=O)C3(C)CC3)ccc2[C@H]1O (racemic)	6.27
CC1(S(=O)(=O)NC(=O)c2ccccc2-c2ccc3c(c2)OC[C@@H](Cc2coc(-c4ccccc4)n2)[C@@H]3O)CC1 (single isomer, unassigned)	7.22
O=C(NS(=O)(=O)C(F)(F)F)c1ccc(F)cc1-c1ccc2c(c1)OC[C@H](Cc1ccc(-c3ccccc3)cc1)[C@H]2O (single isomer, unassigned)	7.46
